Tests used:
[1] = test system: DU-145; experiment: PROLiFiler-Cell Panel Screening (CellTiterGlo); type: cell-based; details: Homo sapiens; Prostate, DU-145, 72 hours
Description: (§1) For the assays, cells were seeded in white cell culture-treated flat and clear bottom 384-well multiwall plates and incubated at 37° C. overnight before the calix[4]arene of the formula (2) or the reference compound were added. After incubation for 72 hours at 37° C. at 5% or 10% CO2 depending on the medium, cell plates were equilibrated to room temperature (i.e. 20° C.) for one hour, CellTiterGlo® reagent from the firm Promega was added and luminescence was measured approximately an hour later using a luminometer.
(§2) Raw data were converted into percent cell viability relative to the high and low control, which were set to 100% and 0%, respectively.

[2] = test system: MOLM-13; experiment: PROLiFiler-Cell Panel Screening (CellTiterGlo); type: cell-based; details: Homo sapiens; Blood, MOLM-13, 72 hours
Description: as §1, §2

[3] = test system: U251MG; experiment: PROLiFiler-Cell Panel Screening (CellTiterGlo); type: cell-based; details: Homo sapiens, U-251, Brain, 72 hours
Description: as §1, §2

[4] = test system: HL-60; experiment: PROLiFiler-Cell Panel Screening (CellTiterGlo); type: cell-based; details: Homo sapiens; Blood, HL-60, 72 hours
Description: as §1, §2

[5] = test system: COR-L279; experiment: PROLiFiler-Cell Panel Screening (CellTiterGlo); type: cell-based; details: Homo sapiens; Lung, COR-L279, 72 hours
Description: as §1, §2

[6] = test system: SNU-1; experiment: PROLiFiler-Cell Panel Screening (CellTiterGlo); type: cell-based; details: Homo sapiens, SNU1; Stomach, SNU-1, 72 hours
Description: as §1, §2

[7] = test system: A375; experiment: PROLiFiler-Cell Panel Screening (CellTiterGlo); type: cell-based; details: Homo sapiens, A-375; Skin, A375, 72 hours
Description: as §1, §2

[8] = test system: MKN-1; experiment: PROLiFiler-Cell Panel Screening (CellTiterGlo); type: cell-based; details: Homo sapiens; Stomach, MKN-1, 72 hours
Description: as §1, §2

[9] = test system: A2058; experiment: PROLiFiler-Cell Panel Screening (CellTiterGlo); type: cell-based; details: Homo sapiens; Skin, A2058, 72 hours
Description: as §1, §2

[10] = test system: COV434; experiment: PROLiFiler-Cell Panel Screening (CellTiterGlo); type: cell-based; details: Ovary, COV434, 72 hours
Description: as §1, §2

[11] = test system: HeLa; experiment: PROLiFiler-Cell Panel Screening (CellTiterGlo); type: cell-based; details: Homo sapiens, Cervix, 72 hours
Description: as §1, §2

[12] = test system: HCC38; experiment: PROLiFiler-Cell Panel Screening (CellTiterGlo); type: cell-based; details: Homo sapiens; Breast, HCC38, 72 hours
Description: as §1, §2

[13] = test system: NCI-H1573; experiment: PROLiFiler-Cell Panel Screening (CellTiterGlo); type: cell-based; details: Homo sapiens; Lung, NCI-H1573, 72 hours
Description: as §1, §2

[14] = test system: NCI-H1838; experiment: PROLiFiler-Cell Panel Screening (CellTiterGlo); type: cell-based; details: Homo sapiens; Lung, NCI-H1838, 72 hours
Description: as §1, §2

[15] = test system: SW-1783; experiment: PROLiFiler-Cell Panel Screening (CellTiterGlo); type: cell-based; details: Homo sapiens, SW1783; Brain, SW-1783, 72 hours
Description: as §1, §2

[16] = test system: SW948; experiment: PROLiFiler-Cell Panel Screening (CellTiterGlo); type: cell-based; details: Homo sapiens; Colon, SW948, 72 hours
Description: as §1, §2

[17] = test system: MV4-11; experiment: PROLiFiler-Cell Panel Screening (CellTiterGlo); type: cell-based; details: Homo sapiens; Blood, MV4-11, 72 hours
Description: as §1, §2

[18] = test system: SiHa; experiment: PROLiFiler-Cell Panel Screening (CellTiterGlo); type: cell-based; details: Homo sapiens, Cervix, 72 hours
Description: as §1, §2

[19] = test system: T98G; experiment: PROLiFiler-Cell Panel Screening (CellTiterGlo); type: cell-based; details: Homo sapiens, Brain, 72 hours
Description: as §1, §2

[20] = test system: Hep3B2.1-7; experiment: PROLiFiler-Cell Panel Screening (CellTiterGlo); type: cell-based; details: Liver, Hep3B2.1-7, 72 hours
Description: as §1, §2

[21] = test system: HCT-15; experiment: PROLiFiler-Cell Panel Screening (CellTiterGlo); type: cell-based; details: Homo sapiens; Colon, HCT-15, 72 hours
Description: as §1, §2

[22] = test system: Caki-1; experiment: PROLiFiler-Cell Panel Screening (CellTiterGlo); type: cell-based; details: Homo sapiens; Kidney, Caki-1, 72 hours
Description: as §1, §2

[23] = test system: U2OS; experiment: PROLiFiler-Cell Panel Screening (CellTiterGlo); type: cell-based; details: Homo sapiens, Bone, 72 hours
Description: as §1, §2

[24] = Cu^+ binding by 1H NMR titration; details: 1H NMR titration with Cu(MeCN)4BF4, CD3CN/CDCl3 4/1, 298 K
Description: Binding abilities and complexation constants of the examples of calix[4]arenes of the present invention and the comparative examples with Cu^+ were evaluated by ^1H NMR titrations at 298 K using copper(I)tetrakis(acetronitrile)tetrafluoroborate.
For example, for each separate calix[4]arene a stock solution of the tested calix[4]arene was prepared in a CD3CN/CDCl3, 4/1 mixture. Using this stock solution, a Cu(MeCN)4BF4 solution was prepared and added by steps of 0.25 equivalent of copper(I) up until 1 equivalent and then by steps of 0.5 equivalent until a total of at least 2 equivalents. ^1H NMR spectra were recorded at a 400 MHz spectrometer at 298 K for the stock solutions of the calix[4]arenes and after each addition of Cu(MeCN)4BF4.
Calix[4]arenes for which a gradual change of the chemical shifts of the ^1H NMR signals (>0.1 ppm for at least one of the signals) was observed upon addition of up to 4-5 equivalents of Cu(MeCN)4BF4 were considered to show weak binding.

[25] = test system: H322 lung carcinoma cells; experiment: MTS cytotoxicity assay, combination with CuCl2, H322; details: NCI-H322, 72 h, read-out: percentage of cell viability
Description: H322 lung carcinoma cells were seeded in 96-well plates together with the calix[4]arene of the formula (2) and CuCl2. Cells were grown in RPMI-1640 supplemented with GlutaMAX™ (Gibco™) and fetal calf serum (FCS, 10%) treated with a broad range of concentrations of the calix[4]arene of the formula (2) or/and CuCl2 from Merck. After 72 hours of treatment, the cytotoxicity was measured by means of the IC50 value, using the kit “CellTiter 96R AQuous One Solution Cell Proliferation Assay (MTS)” from Promega™ Following 30 minutes of incubation with the MTS reagent, the endpoint measurements were done in triplicate at 485 nm, using a fluorescence plate reader.

[26] = test system: Non-malignant MRC5-SVII cells; experiment: MTS cytotoxicity assay on MRC5-SVII; type: cell-based; details: 72 hours of treatment
Description: Cells were grown in Minimal Essential Medium—Non Essential Amino Acids (MEM NEAA) culture medium from Gibco™, supplemented with sodium pyruvate ([…]), and fetal calf serum (FCS, 10%) and treated with a broad range of concentrations of the 2nd comparative example of the formula (XI).

[27] = test system: A549 human lung cancer cells; experiment: MTS cytotoxicity assay, combination with CuCl2, A549; details: Homo sapiens, A549, 72 h, read-out: percentage of cell viability
Description: A549 human lung cancer cells were seeded in 96-well plates together with the calix[4]arene of the formula (2) and CuCl2. Cells were grown in RPMI-1640 supplemented with GlutaMAX™ (Gibco™) and fetal calf serum (FCS, 10%) treated with a broad range of concentrations of the calix[4]arene of the formula (2) or/and CuCl2 from Merck. After 72 hours of treatment, the cytotoxicity was measured by means of the IC50 value, using the kit “CellTiter 96R AQuous One Solution Cell Proliferation Assay (MTS)” from Promega™. Following 30 minutes of incubation with the MTS reagent, the endpoint measurements were done in triplicate at 485 nm, using a fluorescence plate reader.

[28] = test system: Non-malignant MSC cells; experiment: MTS cytotoxicity assay on MSC; type: cell-based; details: 72 hours of treatment
Description: After 72 hours of treatment, the cytotoxicity was measured by means of the IC50 value, using the kit “CellTiter 96R AQuous One Solution Cell Proliferation Assay (MTS)” from Promega™. Following 30 minutes of incubation with the MTS reagent, the endpoint measurements were done in triplicate at 485 nm, using a fluorescence plate reader.

[29] = test system: Non-malignant HaCaT cells; experiment: MTS cytotoxicity assay on HaCaT; type: cell-based; details: Homo sapiens, 72 hours of treatment
Description: Non-malignant HaCaT cells were seeded in 96-well plates together with the calix[4]arene of the formula (2). Cells were grown in RPMI-1640 supplemented with GlutaMAX™ (Gibco™) and fetal calf serum (FCS, 20%) and treated with a broad range of concentrations of the calix[4]arene of the formula (2). After 72 hours of treatment, the cytotoxicity was measured by means of the IC50 value, using the kit “CellTiter 96R AQuous One Solution Cell Proliferation Assay (MTS)” from Promega™. Following 30 minutes of incubation with the MTS reagent, the endpoint measurements were done in triplicate at 485 nm, using a fluorescence plate reader.

Work on CCCOc1c2cccc1Cc1cccc(c1OCc1nccn1C)Cc1cccc(c1OCCC)Cc1cccc(c1OCc1nccn1C)C2 [(2)] yielded an IC50 [1] of 1930 nM, an IC50 [2] of 1710 nM and an IC50 [3] of 3530 nM. The IC50 [4] was 1450 nM, the IC50 [5] was 1510 nM and the IC50 [6] was 2550 nM. It also gave an IC50 [7] of 1170 nM, an IC50 [8] of 2160 nM and an IC50 [9] of 938 nM. For the same molecule, the IC50 [10] was 732 nM, the IC50 [11] was 1700 nM and the IC50 [12] was 2530 nM. It also gave an IC50 [13] of 2210 nM, an IC50 [14] of 3480 nM and an IC50 [15] of 3380 nM. For the same molecule, the IC50 [16] was 2150 nM, the IC50 [17] was 671 nM and the IC50 [18] was 1250 nM. It also gave an IC50 [19] of 3110 nM, an IC50 [20] of 781 nM and an IC50 [21] of 2020 nM. The IC50 [22] was 3240 nM, the IC50 [23] was 1060 nM and the “Cu^+ binding” value [24] was “Strong binding (means an affinity constant (Ka) equal or greater than 10^5 M^−1)”. It also gave a viability at 0.1 µM [25] of 96.5%, a viability at 0.5 µM [25] of 94.1% and a viability at 1 µM [25] of 87%. The viability at 1.5 µM [25] was 62.6%, the IC50 [26] was 1030 nM and the viability at 0.1 µM [27] was 102%. It also gave a viability at 0.5 µM [27] of 96.4%, a viability at 1 µM [27] of 79.9% and a viability at 1.5 µM [27] of 52.2%. The IC50 [28] was 1010 nM and the IC50 [29] was 1050 nM.
CC(C)C[C@H](NC(=O)[C@H](Cc1ccccc1)NC(=O)c1cnccn1)B(O)O [bortezomib, reference compound] gave an IC50 [1] of 6.8 nM, an IC50 [2] of 3.91 nM and an IC50 [3] of 9.16 nM. The IC50 [4] was 3.73 nM, the IC50 [5] was 4.94 nM and the IC50 [6] was 28.8 nM. For the same molecule, the IC50 [7] was 5.44 nM, the IC50 [8] was 4.32 nM and the IC50 [9] was 9.24 nM. It also gave an IC50 [10] of 9.24 nM, an IC50 [11] of 18.7 nM and an IC50 [12] of 5.41 nM. It also gave an IC50 [13] of 16.7 nM, an IC50 [14] of 34.1 nM and an IC50 [15] of 8.6 nM. The IC50 [16] was 8.88 nM, the IC50 [17] was 3.13 nM and the IC50 [18] was 7.41 nM. For the same molecule, the IC50 [19] was 11.4 nM, the IC50 [20] was 7.98 nM and the IC50 [21] was 9.25 nM. For the same molecule, the IC50 [22] was 5.37 nM and the IC50 [23] was 5.83 nM.

— patent publication US20260015339A1, “CALIX[4]ARENES WITH HIGH ANTICANCER ACTIVITY” (UNIVERSITE GRENOBLE ALPES, priority 2023, published 2026)
